Series [1] concerns day 3 LA-Mφ (human macrophages under lactic acidosis). Kind of series: Survival of LA-Mφ with autophagy inhibitors. Type of series: cell-based. Particulars: added to day 3 LA-Mφ; data not shown. Here is the method:
(§1) Peripheral blood mononuclear cells (PBMC) were obtained from healthy human volunteers (Blood collection center, Angers, France; agreement ANG-2017-01) by standard density-gradient centrifugation on lymphocyte separation medium (Eurobio, Courtaboeuf, France). CD14+ monocytes were then isolated by positive magnetic cell-sorting (Miltenyi Biotec, Bergisch Gladbach, Germany). Monocytes (1×10^6 cells/mL) were cultured in complete medium (CM) consisting of RPMI 1640 (Lonza, Verviers, Belgium) supplemented with 10% fetal calf serum (FCS) (Eurobio), 2 mM L-glutamine, 1 mM sodium pyruvate, 0.1 mM non-essential amino acids, 10 mM HEPES, 100 U/mL penicillin and 100 μg/mL streptomycin (all from Lonza) in the presence of 50 ng/mL GM-CSF (R&D Systems, Minneapolis, MN).
(§2) Experiments were performed in the presence of 10 mM lactic acid (Sigma-Aldrich, St Louis, MO) resulting in a pHe of 6.5 to generate LA-Mφ (lactic acidosis conditioning), 12.35 mM HCl to reach a final pHe of 6.5 and to generate HCl-Mφ(acidosis conditioning), 10 mM sodium lactate (Sigma-Aldrich) to generate lactate-Mφ (lactosis conditioning, pH 7.3), in the absence or presence of 5 mM lithium acetoacetate (AcAc) (Sigma-Aldrich, St Louis, MO).

The test system of series [2] is Mφ (human monocytes cultured with GM-CSF). Kind of series: Toxicity of lactic acid for macrophages. Particulars: pH=6.5; data not shown. Type of series: cell-based. Here is the method: as §1, §2

As for `CC[C@@H](C(=O)[C@@H](C)[C@@H](O)[C@H](C)[C@@H]1O[C@@H]([C@@H](CC)C(=O)O)CC[C@@H]1C)[C@H]1O[C@]2(C=C[C@@H](O)[C@]3(CC[C@@](C)([C@H]4CC[C@](O)(CC)[C@H](C)O4)O3)O2)[C@H](C)C[C@@H]1C` [salinomycin], the “survival of LA-Mφ” value in series [1] is on record as “significantly decreased their survival”.

In the case of `CO/C1=C\C(C)=C\[C@@H](C)[C@@H](O)[C@@H](C)C/C(C)=C/C=C/[C@H](OC)[C@@H]([C@@H](C)[C@@H](O)[C@H](C)[C@@]2(O)C[C@@H](O)[C@H](C)[C@@H](C(C)C)O2)OC1=O` [BafA1, bafilomycin A1], in series [1], the “survival of LA-Mφ” value is listed as “significantly decreased their survival”.

Consider `CC(O)C(=O)O` (stereo not drawn) [LA, lactic acid], for which, in series [2], the “maximum non-toxic concentration for Mφ” value is on record as 10 mM.

The values above are taken from US20240325330A1, “NEW METHOD TO TREAT ACIDOSIS RELATED DISEASES WITH ACETOACETATE” (INSTITUT NATIONAL DE LA SANTÉ ET DE LA RECHERCHE MÉDICALE, priority 2021, published 2024).
